In the supplement of paper PMC10307832:

Assays:
Assay in all cases: relative viability (nuclei count vs DMSO), 5 days (fraction); higher = more cells survive
SW 1573 = test system: SW 1573
Method in brief: (§1)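 Lung cancer cell lines were seeded in 1536-well plates and dosed by pin tool the next day, with either a single drug or a fixed anchor-drug dose combined with five library-drug doses (not always all listed) spaced in √10 steps. Five days later, one step fixed the cells and stained their nuclei (final 0.05% Triton X-100, 1% formaldehyde, 1 ug/ml Hoechst), and nuclei were counted on 4× images. Relative viability is the nuclei count in treated wells divided by the count in vehicle wells, and each value is the median of duplicate plates.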

COR-L23 = test system: COR-L23
Method in brief: as §1

IA-LM = test system: IA-LM
Method in brief: as §1

ABC-1 = test system: ABC-1
Method in brief: as §1

NCI-H1651 = test system: NCI-H1651
Method in brief: as §1

NCI-H1648 = test system: NCI-H1648
Method in brief: as §1

SK-MES-1 = test system: SK-MES-1
Method in brief: as §1

NCI-H1437 = test system: NCI-H1437
Method in brief: as §1

ChaGo-K-1 = test system: ChaGo-K-1
Method in brief: as §1

NCI-H1703 = test system: NCI-H1703
Method in brief: as §1

A549 = test system: A549
Method in brief: as §1

CC(=O)O[C@@]12CO[C@@H]1C[C@H](O)[C@@]1(C)C(=O)[C@H](O)C3=C(C)[C@@H](OC(=O)[C@H](O)[C@@H](NC(=O)OC(C)(C)C)c4ccccc4)C[C@@](O)([C@@H](OC(=O)c4ccccc4)[C@H]21)C3(C)C [Docetaxel] + O=C(CCCCCCC(=O)Nc1ccccc1)NO [Vorinostat] (partner 1 µM)
relative viability (SW 1573; first compound 0.0002 µM): 0.547
relative viability (SW 1573; first compound 0.000632 µM): 0.305
relative viability (SW 1573; first compound 0.002 µM): 0.228
relative viability (SW 1573; first compound 0.006325 µM): 0.174
relative viability (SW 1573; first compound 0.02 µM): 0.126
relative viability (COR-L23; first compound 0.0002 µM): 0.492
relative viability (COR-L23; first compound 0.000632 µM): 0.248
relative viability (COR-L23; first compound 0.002 µM): 0.151
relative viability (COR-L23; first compound 0.006325 µM): 0.154
relative viability (COR-L23; first compound 0.02 µM): 0.0838
relative viability (IA-LM; first compound 0.0002 µM): 0.723
relative viability (IA-LM; first compound 0.000632 µM): 0.328
relative viability (IA-LM; first compound 0.002 µM): 0.145
relative viability (IA-LM; first compound 0.006325 µM): 0.0958
relative viability (IA-LM; first compound 0.02 µM): 0.0566
relative viability (ABC-1; first compound 0.0002 µM): 1.13
relative viability (ABC-1; first compound 0.000632 µM): 0.884
relative viability (ABC-1; first compound 0.002 µM): 0.44
relative viability (ABC-1; first compound 0.006325 µM): 0.435
relative viability (ABC-1; first compound 0.02 µM): 0.338
relative viability (NCI-H1651; first compound 0.0002 µM): 0.41
relative viability (NCI-H1651; first compound 0.000632 µM): 0.582
relative viability (NCI-H1651; first compound 0.002 µM): 0.463
relative viability (NCI-H1651; first compound 0.006325 µM): 0.159
relative viability (NCI-H1648; first compound 0.0002 µM): 0.487
relative viability (NCI-H1648; first compound 0.000632 µM): 0.378
relative viability (NCI-H1648; first compound 0.002 µM): 0.255
relative viability (NCI-H1648; first compound 0.006325 µM): 0.301
relative viability (NCI-H1648; first compound 0.02 µM): 0.155
relative viability (SK-MES-1; first compound 0.0002 µM): 1.15
relative viability (SK-MES-1; first compound 0.000632 µM): 0.925
relative viability (SK-MES-1; first compound 0.002 µM): 0.695
relative viability (SK-MES-1; first compound 0.006325 µM): 0.267
relative viability (SK-MES-1; first compound 0.02 µM): 0.212
relative viability (NCI-H1437; first compound 0.0002 µM): 0.838
relative viability (NCI-H1437; first compound 0.000632 µM): 0.522
relative viability (NCI-H1437; first compound 0.002 µM): 0.553
relative viability (NCI-H1437; first compound 0.006325 µM): 0.275
relative viability (NCI-H1437; first compound 0.02 µM): 0.185
relative viability (ChaGo-K-1; first compound 0.0002 µM): 0.733
relative viability (ChaGo-K-1; first compound 0.000632 µM): 0.591
relative viability (ChaGo-K-1; first compound 0.002 µM): 0.335
relative viability (ChaGo-K-1; first compound 0.006325 µM): 0.282
relative viability (ChaGo-K-1; first compound 0.02 µM): 0.193

Nc1ccn([C@@H]2O[C@H](CO)[C@@H](O)[C@@H]2O)c(=O)n1 [Cytarabine] + NC(=O)Nc1cc(-c2cccc(F)c2)sc1C(=O)N[C@H]1CCCNC1 [AZD7762] (partner 0.2 µM)
relative viability (NCI-H1703; first compound 0.005 µM): 0.108
relative viability (NCI-H1703; first compound 0.01581 µM): 0.121
relative viability (NCI-H1703; first compound 0.05 µM): 0.103
relative viability (NCI-H1703; first compound 0.1581 µM): 0.124
relative viability (NCI-H1703; first compound 0.5 µM): 0.13
relative viability (ABC-1; first compound 0.005 µM): 0.626
relative viability (ABC-1; first compound 0.01581 µM): 0.899
relative viability (ABC-1; first compound 0.05 µM): 0.745
relative viability (ABC-1; first compound 0.1581 µM): 0.744
relative viability (ABC-1; first compound 0.5 µM): 0.666
relative viability (NCI-H1651; first compound 0.005 µM): 0.484
relative viability (NCI-H1651; first compound 0.01581 µM): 0.447
relative viability (NCI-H1651; first compound 0.05 µM): 0.297
relative viability (NCI-H1651; first compound 0.1581 µM): 0.114
relative viability (NCI-H1651; first compound 0.5 µM): 0.0958
relative viability (NCI-H1648; first compound 0.005 µM): 0.647
relative viability (NCI-H1648; first compound 0.01581 µM): 0.882
relative viability (NCI-H1648; first compound 0.05 µM): 0.73
relative viability (NCI-H1648; first compound 0.1581 µM): 0.527
relative viability (NCI-H1648; first compound 0.5 µM): 0.401
relative viability (NCI-H1437; first compound 0.005 µM): 1.04
relative viability (NCI-H1437; first compound 0.01581 µM): 0.549
relative viability (NCI-H1437; first compound 0.05 µM): 0.321
relative viability (NCI-H1437; first compound 0.1581 µM): 0.167
relative viability (NCI-H1437; first compound 0.5 µM): 0.146
relative viability (ChaGo-K-1; first compound 0.005 µM): 0.877
relative viability (ChaGo-K-1; first compound 0.01581 µM): 0.643
relative viability (ChaGo-K-1; first compound 0.05 µM): 0.439
relative viability (ChaGo-K-1; first compound 0.1581 µM): 0.249
relative viability (ChaGo-K-1; first compound 0.5 µM): 0.199

COc1cc2nccc(Oc3ccc(NC(=O)Nc4cc(C)on4)c(Cl)c3)c2cc1OC [Tivozanib] + Nc1ncn([C@H]2C[C@H](O)[C@@H](CO)O2)c(=O)n1 [Decitabine] (partner 2 µM)
relative viability (SW 1573; first compound 0.005 µM): 0.461
relative viability (SW 1573; first compound 0.01581 µM): 0.446
relative viability (SW 1573; first compound 0.05 µM): 0.487
relative viability (SW 1573; first compound 0.1581 µM): 0.376
relative viability (SW 1573; first compound 0.5 µM): 0.451
relative viability (A549; first compound 0.005 µM): 0.207
relative viability (A549; first compound 0.01581 µM): 0.225
relative viability (A549; first compound 0.05 µM): 0.223
relative viability (A549; first compound 0.1581 µM): 0.239
relative viability (A549; first compound 0.5 µM): 0.225
relative viability (COR-L23; first compound 0.005 µM): 0.391
relative viability (COR-L23; first compound 0.01581 µM): 0.398
relative viability (COR-L23; first compound 0.05 µM): 0.403
relative viability (COR-L23; first compound 0.1581 µM): 0.317
relative viability (COR-L23; first compound 0.5 µM): 0.372
relative viability (ABC-1; first compound 0.005 µM): 0.986
relative viability (ABC-1; first compound 0.01581 µM): 1.01
relative viability (ABC-1; first compound 0.05 µM): 1.15
relative viability (ABC-1; first compound 0.1581 µM): 0.868
relative viability (ABC-1; first compound 0.5 µM): 0.694
relative viability (NCI-H1651; first compound 0.005 µM): 0.572
relative viability (NCI-H1651; first compound 0.01581 µM): 0.551
relative viability (NCI-H1651; first compound 0.05 µM): 0.675
relative viability (NCI-H1651; first compound 0.1581 µM): 0.438
relative viability (NCI-H1651; first compound 0.5 µM): 0.524
relative viability (NCI-H1648; first compound 0.005 µM): 0.467
relative viability (NCI-H1648; first compound 0.01581 µM): 0.434
relative viability (NCI-H1648; first compound 0.05 µM): 0.479
relative viability (NCI-H1648; first compound 0.1581 µM): 0.451
relative viability (NCI-H1648; first compound 0.5 µM): 0.496
relative viability (SK-MES-1; first compound 0.005 µM): 0.363
relative viability (SK-MES-1; first compound 0.01581 µM): 0.363
relative viability (SK-MES-1; first compound 0.05 µM): 0.371
relative viability (SK-MES-1; first compound 0.1581 µM): 0.393
relative viability (SK-MES-1; first compound 0.5 µM): 0.435
relative viability (NCI-H1437; first compound 0.005 µM): 0.629
relative viability (NCI-H1437; first compound 0.01581 µM): 0.582
relative viability (NCI-H1437; first compound 0.05 µM): 0.594
relative viability (NCI-H1437; first compound 0.1581 µM): 0.653
relative viability (NCI-H1437; first compound 0.5 µM): 0.564
relative viability (ChaGo-K-1; first compound 0.005 µM): 0.458
relative viability (ChaGo-K-1; first compound 0.01581 µM): 0.498
relative viability (ChaGo-K-1; first compound 0.05 µM): 0.515
relative viability (ChaGo-K-1; first compound 0.1581 µM): 0.543
relative viability (ChaGo-K-1; first compound 0.5 µM): 0.489
